Values quoted from earlier work, collected in patent US8324185B2, “Composition for the treatment of obesity and hyperlipidemia” (Nucitec, S.A. DF C.V., priority 2004, dated 2012).

Columns and labels:
[1] = target: T1, pancreatic lipase (Homo sapiens, UniProt P16233); settings: in vitro
T1 sequence (P16233 17-465): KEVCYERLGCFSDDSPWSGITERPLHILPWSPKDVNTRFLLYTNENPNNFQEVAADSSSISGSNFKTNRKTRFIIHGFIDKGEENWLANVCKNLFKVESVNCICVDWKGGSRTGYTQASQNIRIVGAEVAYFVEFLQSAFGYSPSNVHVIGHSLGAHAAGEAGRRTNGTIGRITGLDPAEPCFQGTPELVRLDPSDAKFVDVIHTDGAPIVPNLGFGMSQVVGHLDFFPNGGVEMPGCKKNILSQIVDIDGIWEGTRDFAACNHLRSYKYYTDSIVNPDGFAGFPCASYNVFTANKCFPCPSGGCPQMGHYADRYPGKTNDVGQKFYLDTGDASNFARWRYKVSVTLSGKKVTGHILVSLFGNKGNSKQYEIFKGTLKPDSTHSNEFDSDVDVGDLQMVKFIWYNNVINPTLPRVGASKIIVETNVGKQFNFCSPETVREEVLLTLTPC

[2] = dietary fat

Row | pK value of the amino group | Compound | inhibition of pancreatic lipase activity [1] | reduction in fat absorption from the diet [2]
1 | ~9 | NCCCC[C@H](N)C(=O)O [lisine] |  | 
2 |  | CCCCCCCCCCC[C@@H](C[C@@H]1OC(=O)[C@H]1CCCCCC)OC(=O)[C@H](CC(C)C)NC=O [orlistat] | fully inhibits | 30%
